# Measured values: patent US5248796A, “Taxol derivatives” (Bristol-Myers Squibb Company, priority 1992, dated 1993)
# Where two headings read alike, the source gives them in different places.
# Legend:
# [1] = system: HCT-116 human colon carcinoma cells; assay: In vitro cytotoxicity, XTT assay, HCT-116 human colon carcinoma cells; type: cell-based; settings: read-out: IC50 HCT-116
# [2] = system: HCT-116/VM46 human colon carcinoma cells; assay: In vitro cytotoxicity, XTT assay, HCT-116/VM46 cells (teniposide-resistant, multidrug resistance phenotype); type: cell-based; settings: for IC50: Homo sapiens, read-out: IC50 HCT-116/VM46; for fold resistance relative to HCT116 cells: 4320 min
# [3] = background statement; cited from earlier work
# [4] = HCT-116/VM46 relative to HCT116, value in parenthesis
# [5] = HCT-116/VM46, teniposide-resistant, multidrug resistance phenotype, XTT, 72 hours, 37° C.
structure (smiles),measurement,setting,value
"CC(=O)O[C@@]12CO[C@@H]1C[C@H](OC(=O)C(F)Cl)[C@@]1(C)C(=O)CC3=C(C)[C@@H](OC(=O)[C@H](O)[C@@H](NC(=O)c4ccccc4)c4ccccc4)C[C@@](O)([C@@H](OC(=O)c4ccccc4)[C@H]21)C3(C)C (some centres unmarked) [Example 4, 7-O-chlorofluoroacetyl-10-desacetoxytaxol]",IC50,"[1]; HCT-116, 72 h",0.008 µM
"C=C1C2=CC(=O)[C@]3(C)[C@@H](OC(=O)C(F)Cl)C[C@H]4OC[C@@]4(OC(C)=O)[C@H]3[C@H](OC(=O)c3ccccc3)[C@](O)(C[C@@H]1OC(=O)[C@H](O)[C@@H](NC(=O)c1ccccc1)c1ccccc1)C2(C)C (some centres unmarked) [Example 3, 7-O-chlorofluoroacetyl-10-desacetoxy-11,12-dihydrotaxol-10,12(18)-diene]",IC50,"[1]; HCT-116, 72 h",0.038 µM
CC(=O)O[C@H]1C(=O)[C@@]2(C)[C@H]([C@H](OC(=O)c3ccccc3)[C@]3(O)C[C@H](OC(=O)[C@H](O)[C@@H](NC(=O)c4ccccc4)c4ccccc4)C(C)=C1C3(C)C)[C@]1(OC(C)=O)CO[C@@H]1C[C@@H]2O [Taxol],IC50,"[1]; HCT-116, 72 h",0.004 µM
same,IC50,"[2]; HCT-116/VM46, 72 h",0.44 µM
same,fold resistance relative to HCT116 cells,"[2]; human, hct-116/vm46 cells",124 fold
same,antitumor activity in in vivo animal models,[3],excellent antitumor activity
"C=C1C2=CC(=O)[C@@]3(C)[C@H]([C@H](OC(=O)c4ccccc4)[C@](O)(C[C@@H]1OC(=O)[C@H](O)[C@@H](NC(=O)c1ccccc1)c1ccccc1)C2(C)C)[C@]1(OC(C)=O)CO[C@@H]1C[C@@H]3O [Example 9, 10-Desacetoxy-11,12-dihydrotaxol-10,12(18)-diene]",IC50,"[1]; HCT-116, 72 h",0.038 µM
"C=C1C2=CC(=O)[C@]3(C)[C@H](O)C[C@H]4OC[C@@]4(OC(C)=O)[C@H]3[C@H](OC(=O)c3ccccc3)[C@](O)(C[C@@H]1OC(=O)[C@H](O)[C@@H](NC(=O)c1ccccc1)c1ccccc1)C2(C)C [Example 16, 10-Desacetoxy-11,12-dihydro-7-epitaxol-10,12(18)-diene]",IC50,"[1]; HCT-116, 72 h",0.04 µM
"CC(=O)O[C@@]12CO[C@@H]1C[C@H](O)[C@@]1(C)C(=O)CC3=C(C)[C@@H](OC(=O)[C@H](O)[C@@H](NC(=O)c4ccccc4)c4ccccc4)C[C@@](O)([C@@H](OC(=O)c4ccccc4)[C@H]21)C3(C)C [Example 10, 10-Desacetoxytaxol]",IC50,"[1]; HCT-116, XTT, 72 hours, 37° C.",0.008 µM
same,fold resistance relative to HCT116 cells,[2]; [4],153 fold
same,IC50,[2]; [5],1.22 µM
"CC(=O)O[C@@]12CO[C@@H]1C[C@@H](O)[C@@]1(C)C(=O)CC3=C(C)[C@@H](OC(=O)[C@H](O)[C@@H](NC(=O)c4ccccc4)c4ccccc4)C[C@@](O)([C@@H](OC(=O)c4ccccc4)[C@H]21)C3(C)C [Example 13, 7-Epi-10-desacetoxytaxol]",IC50,"[1]; HCT-116, XTT, 72 hours, 37° C.",> 0.098 µM
same,fold resistance relative to HCT116 cells,[2]; [4],< 32 fold
same,IC50,[2]; [5],3.09 µM
